From patent US20040024024A1, “Aromatic sulfone hydroxamates and their use as protease inhibitors” (priority 2001, published 2004)
Where “and” joins values, the source holds several entries; their conditions need not be identical. Identical values can stand only once. Counter-ions that a name gives are not always drawn.

What was measured:
Format in all cases: biochemical
[1] = biological target: T1, Human recombinant MMP-13 (Homo sapiens, UniProt P45452); experiment: In vitro MMP inhibition, Ki determination (fluorogenic substrate II)
T1 construct: made in house; host or cells: baculovirus / insect cells
Method: Several hydroxamates and salts thereof were analyzed in in vitro assays to determine their ability to inhibit the MMP cleavage of peptide substrates. Inhibition (Ki) and IC50 constants were calculated from the assayed hydroxamate-MMP interactions.
Human recombinant MMP-1, MMP-2, MMP-9, MMP-13, and MMP-14 were used in this assay. All enzymes were prepared in Assignee's laboratories following usual laboratory procedures. Protocols for the preparation and use of these enzymes are available in the scientific literature. See, e.g., Enzyme Nomenclature (Academic Press, San Diego, Calif., 1992) (and the citations therein). See also, Frije et al., J. Biol. Chem., 26(24), 16766-73 (1994).
The expressed proenzyme was first purified over a heparin agarose column, and then over a chelating zinc chloride column. The proenzyme was then activated by APMA for use in the assay. Further details on baculovirus expression systems may be found in, for example, Luckow et al., J. Virol., 67, 4566-79 (1993). See also, O'Reilly et al, Baculovirus Expression Vectors: A Laboratory Manual (W. H. Freeman and Co., New York, N.Y., 1992). See also, King et al., The Baculovirus Expression System: A Laboratory Guide (Chapman & Hall, London, England, 1992).
All MMPs were activated using 4-aminophenylmercuric acetate (“APMA”, Sigma Chemical, St. Louis, Mo.) or trypsin. MMP-9 also was activated using human recombinant MMP-3 (purified in Assignee's laboratory following standard cloning and purification techniques).
Two fluorogenic, methoxycoumarin-containing polypeptide substrates were used in the MMP inhibition assays:
MCA-ArgProLeuGlyLeuDpaAlaArgGluArgNH2 (II)
Here, “Dpa” is 3-(2,4-dinitrophenyl)-L-2,3-diaminopropionyl group, and “MCA” is 7-methoxycoumarin-4-yl acetyl. Substrate (I) was purchased from Baychem (Redwood City, Calif.), and substrate II was prepared Assignee's laboratory. Substrate I was used in the IC50 determination assays, while substrate II was used in the Ki determination assays. In the absence of MMP inhibitory activity, either substrate is cleaved at the Gly-Leu peptide bond. This cleavage separates the highly fluorogenic peptide from the 2,4-dinitrophenyl quencher, thus resulting in increase of fluorescent intensity.
The stock solutions of the assayed hydroxamates (or salts thereof) were prepared in 1% dimethyl sulfoxide (DMSO). These stock solutions were diluted in Buffer A (100 mM Tris-HCl, 100 mM NaCl, 10 mM CaCl2, 0.05% polyoxyethylene 23 lauryl ether, pH 7.5) to obtain solutions with different hydroxamate concentrations, i.e., assay solutions with different concentrations of the assayed MMP inhibitory compound. The experiment controls contained the same amount of Buffer A/DMSO as the assayed sample, but contained no hydroxamate (or salt thereof).
The assays from which the Ki determinations were made were performed as follows. The assayed hydroxamate samples were incubated in separate wells of untreated white polystyrene plates (Nunc Nalgene International, Rochester, N.Y.), and analyzed on a Tecan SpectraFlour Plus plate reader. The excitation wavelength was 330 nm, and the emission wavelength—420 nm. All samples (assayed hydroxamates and controls) were incubated in separate plate wells at room temperature for 1 hr in the presence of 4 μM of MMP substrate (II). In the absence of MMP inhibitory activity, substrate II was cleaved at the Gly-Leu bond resulting in an increase of relative fluorescence. Inhibition was observed as a reduced rate of this increase in relative fluorescence. The various hydroxamates were analyzed using a single low enzyme concentration with a single substrate concentration fixed at or below the Km. This protocol is a modification of method by Knight et al., FEBS Lett., 296(3), 263-266 (1992). Apparent inhibitory constants were determined by non-linear regression of reaction velocity as a function of inhibitor and enzyme concentration using Morrison's equation, as described by Kuzmic, Anal. Biochem. 286, 45-50 (2000). […]

[2] = biological target: T2, Human recombinant MMP-1 (Homo sapiens, UniProt P03956); experiment: In vitro MMP inhibition, IC50 determination (fluorogenic substrate I)
T2 construct: made in house; host or cells: MMP-1-transfected HT-1080 cells (spent media)
T2 sequence (P03956 100-469): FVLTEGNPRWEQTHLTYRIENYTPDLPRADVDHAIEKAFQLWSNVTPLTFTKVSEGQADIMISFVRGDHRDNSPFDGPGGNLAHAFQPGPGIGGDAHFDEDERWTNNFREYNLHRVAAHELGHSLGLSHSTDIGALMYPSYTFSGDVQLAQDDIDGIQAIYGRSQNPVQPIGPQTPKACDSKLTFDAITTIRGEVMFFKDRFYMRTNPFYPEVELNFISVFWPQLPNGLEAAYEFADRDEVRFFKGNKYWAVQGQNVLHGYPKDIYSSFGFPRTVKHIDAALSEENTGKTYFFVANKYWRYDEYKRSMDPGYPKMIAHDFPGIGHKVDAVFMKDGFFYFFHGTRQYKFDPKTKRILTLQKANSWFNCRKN
In short: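 Inhibitor dilutions were made in 100 mM Tris-HCl/100 mM NaCl/10 mM CaCl2 buffer, pH 7.5, and incubated at room temperature with activated proenzyme (from transfected HT-1080 media; APMA or trypsin) and 4 μM quenched methoxycoumarin peptide substrate. Loss of 415 nm fluorescence (328 nm excitation) against concentration gave IC50.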

[3] = biological target: T3, Human recombinant MMP-9 (Homo sapiens, UniProt P14780); experiment: as above
T3 construct: made in house; host or cells: MMP-9-transfected HT1080 cells (spent media)
In short: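 Reduction in fluorescence (328 nm excitation, 415 nm emission) from cleavage of 4 μM quenched peptide substrate I, measured at room temperature against inhibitor concentration, gave IC50. Enzyme: trypsin- or APMA-activated MMP-9 purified from transfected HT1080 medium; buffer 100 mM Tris, 100 mM NaCl, 10 mM CaCl2, pH 7.5.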

[4] = substrate (I) 4 μM, room temperature, values not in parenthesis
[5] = substrate (II) 4 μM, 1 hr room temperature, apparent Ki, values in parenthesis

T3 sequence (P14780 107-707 limits assumed): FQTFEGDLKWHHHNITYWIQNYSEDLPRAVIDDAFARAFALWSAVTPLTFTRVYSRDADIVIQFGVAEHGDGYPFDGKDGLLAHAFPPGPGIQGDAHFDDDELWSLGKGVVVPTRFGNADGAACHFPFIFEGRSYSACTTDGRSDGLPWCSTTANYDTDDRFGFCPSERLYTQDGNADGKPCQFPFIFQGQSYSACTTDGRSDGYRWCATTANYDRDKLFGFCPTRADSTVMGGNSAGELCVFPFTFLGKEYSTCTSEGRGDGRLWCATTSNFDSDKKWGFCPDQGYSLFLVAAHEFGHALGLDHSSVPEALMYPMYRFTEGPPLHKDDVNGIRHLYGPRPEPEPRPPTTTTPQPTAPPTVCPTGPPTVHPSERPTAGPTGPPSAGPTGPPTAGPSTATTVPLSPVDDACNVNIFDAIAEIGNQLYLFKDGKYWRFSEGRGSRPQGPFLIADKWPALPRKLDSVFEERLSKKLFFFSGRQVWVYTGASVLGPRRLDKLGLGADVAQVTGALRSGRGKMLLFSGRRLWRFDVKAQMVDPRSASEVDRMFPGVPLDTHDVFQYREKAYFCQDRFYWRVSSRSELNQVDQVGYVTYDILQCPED

| Compound | Ki ([1]; value in parenthesis) | Ki ([1]; value in parentheses) | other results |
| --- | --- | --- | --- |
| O=C(NO)C1(S(=O)(=O)c2ccc(OCCCc3cccc(-c4ccc(OC(F)(F)F)cc4)c3)cc2)CCOCC1 [Example 147] | 0.0239 µM | – | – |
| O=C(NO)C1(S(=O)(=O)c2ccc(OCCCc3cccc(-c4cccnc4)c3)cc2)CCOCC1 [Example 150] | 0.000587 µM | – | IC50 ([2]; value outside parenthesis): > 10 µM; IC50 ([3]; value outside parenthesis): 0.53 µM |
| Cc1ccccc1-c1cccc(CCCOc2ccc(S(=O)(=O)C3(C(=O)NO)CCOCC3)cc2)c1 [Example 164] | 0.00685 µM | – | – |
| O=C(CCCc1ccc(S(=O)(=O)C2(C(=O)NO)CCOCC2)cc1)c1cccc(-c2ccccc2)c1 [Example 219] | 0.000355 µM | – | IC50 ([2]; value outside parenthesis): > 10 µM; IC50 ([3]; value outside parenthesis): 0.0777 µM |
| O=C(NO)C1(S(=O)(=O)c2ccc(OCCc3cccc(-c4ccccn4)c3)cc2)CCOCC1 [Example 40] | – | – | IC50 [2, 4]: > 10 µM; IC50 [3, 4]: 0.413 µM; Ki [1, 5]: 0.00058 µM |
| O=C(NO)C1(S(=O)(=O)c2ccc(OCCCn3nnc(-c4ccc(OC(F)(F)F)cc4)n3)cc2)CCN(CC2CC2)CC1 [Example 53] | – | – | IC50 [2, 4]: > 10 µM; IC50 [3, 4]: 0.0755 µM; Ki [1, 5]: 0.000662 µM |
| COCCN1CCC(C(=O)NO)(S(=O)(=O)c2ccc(OCCCc3nc(-c4ccccc4OC(F)(F)F)no3)cc2)CC1 [Example 152] | 0.00266 µM | – | IC50 ([2]; value outside parenthesis): > 10 µM; IC50 ([3]; value outside parenthesis): 0.0723 µM |
| O=C(NO)C1(S(=O)(=O)c2ccc(OCCc3cccc(-c4ccc(F)cc4)c3)cc2)CCOCC1 [Example 123] | 0.00735 µM | – | IC50 ([2]; value outside parenthesis): > 10 µM; IC50 ([3]; value outside parenthesis): > 10 µM |
| O=C(NO)C1(S(=O)(=O)c2ccc(OCCCc3cccc(-c4ccncc4)c3)cc2)CCOCC1 [Example 149] | 0.00118 µM | – | – |
| CCc1ccccc1-c1noc(CCCOc2ccc(S(=O)(=O)C3(C(=O)NO)CCN(CCOC)CC3)cc2)n1 [Example 155] | 0.00158 µM | – | IC50 ([2]; value outside parenthesis): > 10 µM; IC50 ([3]; value outside parenthesis): 1.17 µM |
| O=C(NO)C1(S(=O)(=O)c2ccc(OCCCc3cccc(-c4ccc(F)cc4)c3)cc2)CCN(C2CC2)CC1 [Example 139] | 0.00289 µM | – | IC50 ([2]; value outside parenthesis): > 10 µM; IC50 ([3]; value outside parenthesis): 4.51 µM |
| COCCN1CCC(C(=O)NO)(S(=O)(=O)c2ccc(OCCCn3nnc(-c4ccc(OC(F)(F)F)cc4)n3)cc2)CC1 [Example 48] | – | – | IC50 [2, 4]: > 10 µM; IC50 [3, 4]: 4.45 µM; Ki [1, 5]: 0.000127 µM |
| O=C(NO)C1(S(=O)(=O)c2ccc(OCCCc3cncc(-c4ccccc4)c3)cc2)CCOCC1 [Example 524] | – | 0.000244 µM | IC50 ([2]; value outside parentheses): > 10 µM; IC50 ([3]; value outside parentheses): 1.84 µM |
| O=C(COc1ccc(S(=O)(=O)C2(C(=O)NO)CCOCC2)cc1)c1cccc(-c2ccccc2)c1 [Example 563] | – | 0.0007 µM | – |
| COCCN1CCC(C(=O)NO)(S(=O)(=O)c2ccc(OCCCc3cc(-c4ccc(F)cc4F)cs3)cc2)CC1 [Example 47, 4-[(4-{3-[4-(2,4-difluorophenyl)thien-2-l]propoxy}phenyl)sulfonyl]-N-hydroxy-1-(2-methoxyethyl)piperidine-4-carboxamide Hydrochloride] | – | – | Ki [1, 5]: 0.000304 µM and 0.000423 µM |
| CC(C)c1ccc(-c2cccc(CCCOc3ccc(S(=O)(=O)C4(C(=O)NO)CCOCC4)cc3)c2)cc1 [Example 160] | – | – | IC50 ([2]; value outside parenthesis): > 10 µM |
| O=C(NO)C1(S(=O)(=O)c2ccc(OCCCc3cccc(-c4ccccc4Cl)c3)cc2)CCOCC1 [Example 162] | 0.012 µM | – | – |
| O=C(NO)C1(S(=O)(=O)c2ccc(OCCCc3cccc(-c4ccc(F)cc4)c3)cc2)CCOCC1 [Example 39] | – | – | Ki [1, 5]: 0.00304 µM |
| O=C1Nc2ccc(-c3noc(CCCOc4ccc(S(=O)(=O)C5(C(=O)NO)CCN(C6CC6)CC5)cc4)n3)cc21 [Example 142] | 0.00134 µM | – | – |
| O=C(NO)C1(S(=O)(=O)c2ccc(OCCCc3cccc(-n4ccnc4)c3)cc2)CCOCC1 [Example 574] | – | 0.00132 µM | – |
| Cc1ccc(-c2cccc(CCCOc3ccc(S(=O)(=O)C4(C(=O)NO)CCOCC4)cc3)c2)cc1C [Example 165] | 0.144 µM | – | – |
| O=C(CCCOc1ccc(S(=O)(=O)C2(C(=O)NO)CCOCC2)cc1)Nc1cccc(I)c1 [Example 570] | – | 0.000142 µM | – |
| O=C(NO)C1(S(=O)(=O)c2ccc(OCCCc3cccc(-c4ccccn4)c3)cc2)CCOCC1 [Example 148] | 0.00172 µM | – | – |
| O=C(NO)C1(S(=O)(=O)c2ccc(OCCCc3nc(-c4cccnc4)no3)cc2)CCOCC1 [Example 578] | – | 0.00172 µM | – |
| O=C(NO)C1(S(=O)(=O)c2ccc(OCCCc3cccc(-c4ccco4)c3)cc2)CCOCC1 [Example 97] | 0.00557 µM | – | – |
| CC(C)C(=O)c1cccc(CCCOc2ccc(S(=O)(=O)C3(C(=O)NO)CCOCC3)cc2)c1 [Example 95] | – | – | IC50 ([2]; value outside parenthesis): > 10 µM; IC50 ([3]; value outside parenthesis): 1.2 µM |

Second part, led by results:

| Ki ([1]; value in parenthesis) | Ki ([1]; value in parentheses) | Compound | other results |
| --- | --- | --- | --- |
| – | 0.0576 µM | O=C(NO)C1(S(=O)(=O)c2ccc(OCCCc3cccc(-c4csc5ccccc45)c3)cc2)CCOCC1 [Example 631] | – |
| – | 0.0891 µM | O=C(NO)C1(S(=O)(=O)c2ccc(OCCCc3cccc(-c4ccc5ccccc5c4)c3)cc2)CCOCC1 [Example 629] | – |
| – | 0.0924 µM | O=C(NO)C1(S(=O)(=O)c2ccc(OCCCc3cccc(-c4cc5ccccc5s4)c3)cc2)CCOCC1 [Example 633] | – |
| – | 0.0262 µM | C=Cc1ccc(-c2cccc(CCCOc3ccc(S(=O)(=O)C4(C(=O)NO)CCOCC4)cc3)c2)cc1 [Example 635] | – |
| – | 0.000944 µM | O=C(NO)C1(S(=O)(=O)c2ccc(OCCCc3nc(-c4ccccc4)no3)cc2)CCOCC1 [Example 584] | – |
| – | 0.0409 µM | O=C(NO)C1(S(=O)(=O)c2ccc(OCCCc3cccc(-c4ccc5c(c4)OCCO5)c3)cc2)CCOCC1 [Example 627] | – |
| – | 0.0681 µM | O=C(NO)C1(S(=O)(=O)c2ccc(OCCCc3cccc(-c4cccc5ccccc45)c3)cc2)CCOCC1 [Example 638] | – |
| – | 0.00321 µM | O=C(NO)C1(S(=O)(=O)c2ccc(OCCCc3cccc(-c4ccccc4O)c3)cc2)CCOCC1 [Example 636] | – |
| – | 0.0194 µM | O=C(NO)C1(S(=O)(=O)c2ccc(OCCCc3cccc(-c4coc5ccccc45)c3)cc2)CCOCC1 [Example 634] | – |
| – | 0.0125 µM | Cc1ccc(-c2cccc(CCCOc3ccc(S(=O)(=O)C4(C(=O)NO)CCOCC4)cc3)c2)s1 [Example 639] | – |
| – | 0.0436 µM | O=C(NO)C1(S(=O)(=O)c2ccc(OCCCc3cccc(-c4ccc(C(F)(F)F)cc4)c3)cc2)CCOCC1 [Example 625] | – |
